Article PMC5519977, “Redox-dependent substrate-cofactor interactions in the Michaelis-complex of a flavin-dependent oxidoreductase” (Nature Communications, 2017)

Biological target: T1, xenobiotic reductase A (XenA) (Pseudomonas putida, UniProt Q3ZDM6)
T1 construct: recombinant in E. coli Rosetta (DE3), pET28a; N-terminal His-tag removed with TEV protease; reconstituted with FMN
Experiment: stopped-flow reoxidation of reduced enzyme
Type: biochemical
Conditions: reduced enzyme (FMNH-), anoxic, 50 mM Tris/HCl pH 8.0, 25 °C

T1 sequence (Q3ZDM6 entry or part of it): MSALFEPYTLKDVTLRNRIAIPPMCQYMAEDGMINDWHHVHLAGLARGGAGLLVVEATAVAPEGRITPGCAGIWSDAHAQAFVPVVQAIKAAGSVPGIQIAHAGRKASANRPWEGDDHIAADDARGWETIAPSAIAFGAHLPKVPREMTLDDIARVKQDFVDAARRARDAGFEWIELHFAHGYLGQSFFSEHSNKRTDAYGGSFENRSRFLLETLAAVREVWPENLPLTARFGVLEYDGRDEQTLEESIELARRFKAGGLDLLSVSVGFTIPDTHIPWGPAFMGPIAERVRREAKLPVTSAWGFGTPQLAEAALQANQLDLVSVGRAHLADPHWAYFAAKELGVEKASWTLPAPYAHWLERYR

With `O=c1ccc2cccc(O)c2o1` [8-hydroxycoumarin] the dissociation constant was “dissociation constants of the reduced Michaelis complexes for the respective substrates”.
`O=c1ccc2ccc(O)cc2o1` [7-hydroxycoumarin] was tested, and the dissociation constant was “dissociation constants of the reduced Michaelis complexes for the respective substrates”.
`O=c1ccc2ccccc2o1` [coumarin] was tested, and the dissociation constant was “dissociation constants of the reduced Michaelis complexes for the respective substrates”.
